Experimental data as given in patent US12144792B2, “Therapeutic agents for neurodegenerative diseases” (priority 2016, dated 2024).

Legend:
[1] = test system: Mucopolysaccharidosis Type IIIB (MPS IIIB) patient fibroblasts; assay: Lysosomal volume via LysoTracker; format: cell-based, human; settings: 1 mM, 6 days, vs untreated
[2] = test system: patient with spinocerebellar ataxia 28 (SCA 28); assay: Case study, clinical evaluation; format: in vivo, human; settings: Ex. 14, SCA 28; 5 g per day; after about one month
Protocol: A gait analysis was performed before treatment commenced. After about one month of treatment, medication was stopped and the patient was evaluated. […] The patient reported that they no longer walked like a robot and could climb the stairs without using the banisters.

CC(=O)NC(CC(C)C)C(=O)O (racemic) [acetyl-DL-leucine]
LysoTracker fluorescence (lysosomal volume) [1]: statistically significant reduction in LysoTracker fluorescence | symptomatology [2]: reduced dizziness (almost vanished), and a more stable gait
